Data on two compounds can be found in patent EP2284541A1, “Fluorescence-based imaging and analysis of cells and cellular components using lipophilic dyes with improved specificity, spectral property and photostability” (Max-Planck-Gesellschaft zur Förderung der Wissenschaften …, priority 2009, dated 2011).

Values joined by “and” are separate entries in the source; they are usually repeats but may differ in a detail not shown here. Equal values may be shown once. Read-outs that look alike come from different tables or passages of the source.

Data set [1] can be described thus: Comparative lipophilicity: log P by direct solvent partitioning, measured in the fluorometer. The data set is classed as physicochemical. Conditions: for log P: average, dye 0.1 µg/ml; for Δlog P: LD540 versus Bodipy 493/503. As for the experimental part:
Dyes were dissolved in octanol-saturated water or oil-saturated methanol at a concentration of 0.1 μg/ml, measured in the fluorometer and shaken with an equal volume of water-saturated octanol or methanol-saturated oil for 20 min. Phases were separated by centrifugation. For octanol/water coefficients, the concentration of dye in the water phase was measured and used for calculations of log P. For the oil/methanol system, 10 μl samples of both phases were taken, diluted into 990 μl of isopropanol and measured in the fluorometer. The ratio was used for calculation of log p. Values obtained in the octanol/water system indicated higher lipophilicity of LD540. Since log P values larger 3 obtained by direct solvent partitioning are prone to errors, we also measured in the immiscible pair sunflower oil/methanol, where log p values for lipophilic substances are much smaller and less error prone. […] All values are average +/- […] values were determined by Students t-test.

Data set [2] can be described thus: Photobleaching of dyes in sunflower oil under constant illumination in a photometer cuvette. The data set is classed as physicochemical. Conditions: 0.1 µg/ml in sunflower oil; constant irradiation at absorption maximum. On the procedure:
In a first experiment, the different dyes to be compared (LD540, Nile Red and Bodipy 493/503) were dissolved at 0.1 µg/ml in sunflower oil (which represents the cellular environment of the dyes) and constantly irradiated in a photometer cuvette at their respective absorption maximum. Excitation energy was equal for all three dyes. Every 15 seconds, fluorescence emission was recorded. […] The slope of the curves are directly proportional to the respective rate of photobleaching. Under these conditions, LD540 bleaches 3-times slower than Nile Red and 15-times slower than Bodipy 493/503.

Data set [3] in a line: Spectral characteristics (excitation and emission maxima) in various solvents and in stained cells, spectrofluorometer. The format is physicochemical. Particulars: Ethanol, 2 x 10^-4 M.
For data set [4] the following is noted: reported in U.S. Patent No. 5,446,157; cited from earlier work.
A short description of data set [5]: Spectral characteristics (excitation and emission maxima) in various solvents and in stained cells, spectrofluorometer. The data set is classed as physicochemical. On the procedure: Spectra were measured on a Jobin Yvon Fluoromax3 spectrofluorometer at 3 x 10^-7 M. Differentiated 3T3-L1 cells were stained with 0.2 µg/ml LD540 in DMEM + 10% FCS for 30 min, followed by three washes. Cells were trypsinized, suspended at 100.000 cells/ml in PBS and measured in a fluorescence cuvette.
^#Note that the excitation maximum fits to the one reported in U.S. Patent No. 5,446,157, while the emission maximum in said reference was indicated to be 560 nm.

[6] abbreviates: Oil/methanol (sunflower oil), n = 3.
[7] abbreviates: 3T3-L1 cells stained with 0.2 µg/ml LD540, suspended in PBS.

By log P is commonly meant the decadic logarithm of the partition coefficient of the neutral form, usually between octanol and water. The low end stands for a more hydrophilic compound, the high end for a more lipophilic compound.

Regarding `CC1=CC(C)=[N+]2C1=C(C)c1c(C)cc(C)n1[B-]2(F)F` [Bodipy 493/503, reference compound], the log partition coefficient (log P) in data set [1] (Octanol/water, n = 7) amounted to 3.50; in data set [1] (setting [6]), 0.31.

Take `CC1=C2C=C3CCCCC3=[N+]2[B-](F)(F)n2c1cc1c2CCCC1` [LD540]: in data set [2], the “bleaching, times slower than Nile Red” value amounted to 3. Besides, the emission maximum in data set [3] (1 mm cuvette) is reported as 550 nm; in data set [3] (4 mm cuvette), 557 nm; in data set [4], 560 nm. In addition, in data set [4], the excitation maximum was 535 nm. The “Δlog P” value in data set [1] (Octanol/water) is 0.88; in data set [1] (Oil/methanol), 0.44. Further, the “log P” value in data set [1] (Octanol/water, n = 7) is 4.38; in data set [1] (setting [6]) it was 0.75. Besides, the Λ max exc in data set [5] (setting [7]) was 540 nm and 540.2 nm; in data set [5] (Ethanol, 3 x 10^-7 M), 536.0 nm; in data set [5] (Hexane, 3 x 10^-7 M), 539.7 nm; in data set [5] (Sunflower oil, 3 x 10^-7 M), 540.2 nm; in data set [5] (Water, 3 x 10^-7 M) it was 534.8 nm. Further, the λ max em in data set [5] (setting [7]) is 545 nm and 545.0 nm; in data set [5] (Ethanol, 3 x 10^-7 M), 542.5 nm; in data set [5] (Hexane, 3 x 10^-7 M), 542.2 nm; in data set [5] (Sunflower oil, 3 x 10^-7 M) it was 545.2 nm; in data set [5] (Water, 3 x 10^-7 M) it was 542.4 nm.
